{"source": "patent US8906602B2", "about": "“Methods for identifying candidate compounds for treating, reducing, or preventing pathogenic infections” (The General Hospital Corporation, priority 2004, dated 2014)", "key": {"[1]": {"system": "pqsA-lacZ reporter", "assay": "pqsA-lacZ reporter induction in pqsA mutant cultures", "format": "cell-based, Pseudomonas aeruginosa pqsA mutant", "conditions": "pqsA mutant background, compounds added at onset of culture at 10 mg/L", "description": "Activity is reported as Miller units (MU), corrected for the OD of the cultures at 600 nm.\n(§1) P. aeruginosa strains include: wild type PA14 (Rahme et al., Science 268, 1899-1902, 1995); an mvfR mutant (Cao et al., Proc. Natl. Acad. Sci. USA 98, 14613 -8, 2001); 8C12, a TnphoA-insertion mutant of pqsB (Mahajan-Miklos et al., Cell 96, 47-56, 1999); and a lasR::Gm mutant, which was generated by allelic exchange using pSB219.9A as described (Beatson et al., J Bacteriol 184, 3598-604, 2002). A pqsE deletion mutant was generated via pEX18Ap allelic replacement, using sucrose selection, resulting in a 570 bp non-polar deletion covering 65% of the sequence (Hoang et al., Gene 212, 77-86, 1998). The pqsA (U479) TnphoA mutant was obtained from the PA14 Transposon Insertion Mutant Database. For complementation analysis, mvfR was cloned into pDN18 (Nunn et al., J. Bacteriol. 172, 1990). The reporter fusions phzABC-lacZ and hcnA′-lacZ have been described (Whiteley et al., J. Bacteriol. 182, 4356-60, 2000; Pessi et al., J. Bacteriol. 182, 6940-9, 2000). Plasmids were transformed into PA14 by electroporation (Smith et al., Nuc. Acid. Res. 17, 10509, 1989). Specific β-galactosidase activity was determined as reported (Miller, Cold Spring Harbor Laboratory, Cold Spring Harbor, N.Y., pp. 352-355 1972)."}, "[2]": {"system": "pyocyanin production", "assay": "Pyocyanin production in pqs or mvfR mutant cultures", "format": "cell-based, Pseudomonas aeruginosa pqs or mvfR mutants", "conditions": "addition to cultures of any pqs or mvfR mutants", "experimental": "Whereas pqsA or pqsB inactivation abolish HAQ production, a pqsE mutant produces essentially normal HAQ levels (FIG. 12), and HAQ-related antibiotic activity (FIG. 6). […] Supporting this notion, mvfR overexpression gave excessive pyocyanin accumulation (FIG. 12). […] Such compounds would not be detected by our assay, which was aimed at extracellular compounds. Loss of these compounds might underlie the reduced pathogenicity of a pqsE mutant.\nBacteria were grown in Luria-Bertani broth or on 1.5% Bacto-agar (Difco) LB plates. Freshly plated cells served as inoculum. For pyocyanin production, bacteria were grown in King's A broth (King et al., J. Lab. Clin. Med. 44, 301, 1954) and the pyocyanin quantified as OD520 after supernatant extraction (Essar et al., J. Bacteriol. 172, 884-900, 1990). Tetracycline (75 mg/L), carbenicillin (300 mg/L), kanamycin (200 mg/L), and gentamicin (100 mg/L) were included as required."}, "[3]": {"system": "phzABC-lacZ reporter", "assay": "phzABC-lacZ reporter activity after exogenous HHQ, wild-type PA14 cells", "format": "cell-based, Pseudomonas aeruginosa PA14", "conditions": "wild-type PA14, 10 mg/L HHQ added to culture medium", "description": "To determine whether HHQ is itself involved in signal gene regulation, independently from PQS activity, or whether it functions solely as a PQS precursor, we asked whether exogenous HHQ can stimulate the activity of a phzABC-lacZ reporter carried by wild-type PA14 cells, and by lasR^− mutant cells.\nas §1, with “The reporter fusions phzABC-lacZ and hcnA′-lacZ have been described (Whiteley et al., J. Bacteriol. 182, 4356-60, 2000; Pessi et al., J. Bacteriol. 182, 6940-9, 2000). Plasmids were transformed into PA14 by electroporation (Smith et al., Nuc. Acid. Res. 17, 10509, 1989).” left out, “1972). […]” for “1972).”"}, "[4]": {"system": "Na^+-translocating NADH-quinone oxidoreductases", "conditions": "Häse et al. 2001; cited from earlier work"}, "[5]": {"system": "cytochrome", "conditions": "Lightbown et al. 1956; cited from earlier work"}, "[6]": {"system": "Bacillus subtilis", "assay": "Antimicrobial activity assay on well-plates (growth inhibition zones)", "format": "cell-based", "conditions": "well-plate, 60 μl of 25% methanol solution of test extract or pure HAQ, overnight 37° C.; FIG. 10", "description": "Bacillus subtilis growth on well plates was scored for inhibition by culture extracts of PA14 and the mvfR, pqsA, and pqsE mutant strains (left plate), and by purified PQS, HHQ and HQNO, versus PA14 extract (right plate).\nFluorescent pseudomonads, and perhaps just P. aeruginosa, are the only microorganisms identified to produce HAQs (Budzikiewicz, FEMS Microbiol. Rev. 104, 209-228, 1993; Lépine et al., Biochim. Biophys. Acta 1622, 36-40, 2003). Although their biological functions are unknown, many HAQs were initially isolated as antibiotics (Hays et al., J. Biol. Chem. 159, 725-750, 1945; Wells, J. Biol. Chem. 196, 331-340, 1952). We assayed the antimicrobial activity of total organic extracts from PA14 and mvfR, pqsA, and pqsE mutant strains, and purified PQS, HHQ and HQNO, against the Gram-positive species Staphylococcus aureus and Bacillus subtilis. […] Thus, MvfR regulates the production of antibiotics that can function in niche competition against other bacteria. Because the pqsE mutant and PA14 produce roughly the same levels of antimicrobial activity, these antibiotic compounds are probably HAQs, instead of other non-polar compounds whose synthesis is under PQS control.\nHAQ antimicrobial activity was evaluated on well-plates. […] Plates were incubated overnight at 37° C. and scored for growth inhibition zones around the test wells."}, "[7]": {"conditions": "Pesci et al. 1999; cited from earlier work"}}}
{"smiles": "Nc1ccccc1C(=O)O", "note": "[AA, anthranilic acid]", "values": [{"measurement": "pqsA-lacZ induction (LacZ activity)", "setting": "[1]", "result": "does not"}]}
{"smiles": "CCCCCCCc1cc(O)c2ccccc2n1", "note": "[HHQ, 4-hydroxy-2-heptylquinoline]", "values": [{"measurement": "induction of pyocyanin production", "setting": "[2]", "result": "failed to induce pyocyanin production"}, {"measurement": "β-galactosidase activity of phzABC-lacZ reporter", "setting": "[3]", "result": "induces significant and consistent levels of β-galactosidase activity"}]}
{"smiles": "CCCCCCCc1cc(O)c2ccccc2[n+]1[O-]", "note": "[HQNO, 4-hydroxy-2-heptylquinoline N-oxide]", "values": [{"measurement": "inhibition of Na^+-translocating NADH-quinone oxidoreductases", "setting": "[4]", "result": "inhibits"}, {"measurement": "cytochrome inhibition", "setting": "[5]", "result": "widely used cytochrome inhibitor"}, {"measurement": "antimicrobial activity (growth inhibition)", "setting": "[6]", "result": "specific antibacterial activity"}]}
{"smiles": "CCCCCCCc1nc2ccccc2c(O)c1O", "note": "[PQS, 3,4-dihydroxy-2-heptylquinoline]", "values": [{"measurement": "pqsA-lacZ induction (LacZ activity)", "setting": "[1]", "result": "activates pqsA transcription"}, {"measurement": "induction of pyocyanin production", "setting": "[2]", "result": "failed to induce pyocyanin production"}, {"measurement": "antibiotic activity", "setting": "[7]", "result": "no antibiotic activity"}]}
